In patent US11505573B2, “Peptide macrocycles against Acinetobacter baumannii” (Hoffmann-La Roche Inc., priority 2018, dated 2022) one finds IC50 data, which are given here for 16 compounds.

Structures are written as SMILES.

The subject of this experiment is A. baumannii ATCC 17978. Briefly: Antimicrobial susceptibility testing: 50% growth inhibitory concentration (IC50) determination in Iso-Sensitest broth. In kind it is cell-based. As to conditions: Acinetobacter baumannii; A. baumannii strain ATCC17978; Iso-Sensitest medium; OD 600 nm over 16 h; 35±2° C.; read-out: IC50 ATCC17978 (50% growth inhibition concentration). The procedure:
Antimicrobial Susceptibility Testing: 50% Growth Inhibitory Concentration (IC50) Determination The in vitro antimicrobial activity of the compounds was alternatively determined according to the following procedure: The assay used a 10-points Iso-Sensitest broth medium to measure quantitatively the in vitro activity of the compounds against A. baumannii ATCC 17978. Stock compounds in DMSO were serially twofold diluted (e.g. range from 10 to 0.02 μM final concentration) in 384 wells microtiter plates and inoculated with 49 μl the bacterial suspension in Iso-Sensitest medium to have a final cell concentration of ˜5×10^(5) CFU/ml in a final volume/well of […] Microtiter plates were incubated at 35±2° C. Bacterial cell growth was determined by the measurement of optical density at λ=600 nm each 20 minutes over a time course of 16 h. Growth inhibition was calculated during the logarithmic growth of the bacterial cells by determination of the concentration inhibiting 50% (IC50) and 90% (IC90) of the growth. Table 1 provides the 50% growth inhibitory concentrations (IC50) in micromoles per liter of the compounds of present invention obtained against the A. baumannnii strain ATCC17978.
Regarding `CN1C(=O)[C@H](CCCCN)NC(=O)[C@H](CCCN)NCc2cccnc2Sc2c(Cl)ccc(-c3ccc(S(=O)(=O)O)cc3)c2CNC(=O)[C@@H]1Cc1c[nH]c2ccccc12` [Example 1.00, 4-[(11S,14S,17S)-14-(4-Aminobutyl)-11-(3-aminopropyl)-25-chloro-17-(1H-indol-3-ylmethyl)-16-methyl-12,15,18-trioxo-2-thia-4,10,13,16,19-pentazatricyclo[19.4.0.03,8]pentacosa-1(25),3,5,7,21,23-hexaen-22-yl]benzenesulfonic acid], the IC50 turned out to be 0.02 µM.

For `CN1C(=O)[C@H](CCCCN)NC(=O)[C@H](CCCN)NCc2cccnc2Sc2c(Cl)ccc(-c3ccc4nn[nH]c4c3)c2CNC(=O)[C@@H]1Cc1c[nH]c2ccccc12` [Example 1.01, (11S,14S,17S)-14-(4-aminobutyl)-11-(3-aminopropyl)-22-(3H-benzotriazol-5-yl)-25-chloro-17-(1H-indol-3-ylmethyl)-16-methyl-2-thia-4,10,13,16,19-pentazatricyclo[19.4.0.03,8]pentacosa-1(25),3,5,7,21,23-hexaene-12,15,18-trione], the IC50 worked out at 0.02 µM.

Turning to `CN1C(=O)[C@H](CCCCN)NC(=O)[C@H](CCCN)NCc2cccnc2Sc2c(Cl)ccc(-c3ccc(-c4nnn[nH]4)cc3)c2CNC(=O)[C@@H]1Cc1c[nH]c2ccccc12` [Example 1.02, (11S,14S,17S)-14-(4-aminobutyl)-11-(3-aminopropyl)-25-chloro-17-(1H-indol-3-ylmethyl)-16-methyl-22-[4-(1H-tetrazol-5-yl)phenyl]-2-thia-4,10,13,16,19-pentazatricyclo[19.4.0.03,8]pentacosa-1(25),3,5,7,21,23-hexaene-12,15,18-trione], the IC50 came to 0.1 µM. In the case of `CN1C(=O)[C@H](CCCCN)NC(=O)[C@H](CCCN)NCc2cccnc2Sc2c(Cl)ccc(-c3cccc(-c4nnn[nH]4)c3)c2CNC(=O)[C@@H]1Cc1c[nH]c2ccccc12` [Example 1.03, (11S,14S,17S)-14-(4-aminobutyl)-11-(3-aminopropyl)-25-chloro-17-(1H-indol-3-ylmethyl)-16-methyl-22-[3-(1H-tetrazol-5-yl)phenyl]-2-thia-4,10,13,16,19-pentazatricyclo[19.4.0.03,8]pentacosa-1(25),3,5,7,21,23-hexaene-12,15,18-trione], the IC50 is 0.36 µM. As for `CC(=O)NS(=O)(=O)c1ccc(-c2ccc(Cl)c3c2CNC(=O)[C@H](Cc2c[nH]c4ccccc24)N(C)C(=O)[C@H](CCCCN)NC(=O)[C@H](CCCN)NCc2cccnc2S3)cc1` [Example 1.04, N-[4-[(11S,14S,17S)-14-(4-aminobutyl)-11-(3-aminopropyl)-25-chloro-17-(1H-indol-3-ylmethyl)-16-methyl-12,15,18-trioxo-2-thia-4,10,13,16,19-pentazatricyclo[19.4.0.03,8]pentacosa-1(21),3,5,7,22,24-hexaen-22-yl]phenyl]sulfonylacetamide], the figure is 0.02 µM; as for `CN1C(=O)[C@H](CCCCN)NC(=O)[C@H](CCCN)NCc2cccnc2Sc2c(Cl)ccc(-c3cnc(=O)[nH]c3)c2CNC(=O)[C@@H]1Cc1c[nH]c2ccccc12` [Example 1.05, (11S,14S,17S)-14-(4-aminobutyl)-11-(3-aminopropyl)-25-chloro-17-(1H-indol-3-ylmethyl)-16-methyl-22-(2-oxo-1H-pyrimidin-5-yl)-2-thia-4,10,13,16,19-pentazatricyclo[19.4.0.03,8]pentacosa-1(25),3,5,7,21,23-hexaene-12,15,18-trione], 0.02 µM.

On to `CN1C(=O)[C@H](CCCCN)NC(=O)[C@H](CCCN)NCc2cccnc2Sc2c(Cl)ccc(-c3ccn(Cc4nnn[nH]4)c(=O)c3)c2CNC(=O)[C@@H]1Cc1c[nH]c2ccccc12` [Example 2.00, (11S,14S,17S)-14-(4-Aminobutyl)-11-(3-aminopropyl)-25-chloro-17-(1H-indol-3-ylmethyl)-16-methyl-22-[2-oxo-1-(1H-tetrazol-5-ylmethyl)-4-pyridyl]-2-thia-4,10,13,16,19-pentazatricyclo[19.4.0.03,8]pentacosa-1(25), 3(8),4,6,21,23-hexaene-12,15,18-trione], for which the IC50 amounted to 0.08 µM. Regarding `CN1C(=O)[C@H](CCCCN)NC(=O)[C@H](CCCN)NCc2cccnc2Sc2c(Cl)ccc(-c3ccc(-c4nsc(=O)[nH]4)cc3)c2CNC(=O)[C@@H]1Cc1c[nH]c2ccccc12` [Example 3.00, (11S,14S,17S)-14-(4-Aminobutyl)-11-(3-aminopropyl)-25-chloro-17-(1H-indol-3-ylmethyl)-16-methyl-22-[4-(5-oxo-4H-1,2,4-thiadiazol-3-yl)phenyl]-2-thia-4,10,13,16,19-pentazatricyclo[19.4.0.03,8]pentacosa-1(25), 3(8),4,6,21,23-hexaene-12,15,18-trione], the IC50 came out at 0.08 µM. Turning to `CN1C(=O)[C@H](CCCCN)NC(=O)[C@H](CCCN)NCc2cccnc2Sc2c(Cl)ccc(-c3ccc(-c4noc(=O)[nH]4)cc3)c2CNC(=O)[C@@H]1Cc1c[nH]c2ccccc12` [Example 4.00, (11S,14S,17S)-14-(4-Aminobutyl)-11-(3-aminopropyl)-25-chloro-17-(1H-indol-3-ylmethyl)-16-methyl-22-[4-(5-oxo-4H-1,2,4-oxadiazol-3-yl)phenyl]-2-thia-4,10,13,16,19-pentazatricyclo[19.4.0.03,8]pentacosa-1(25), 3(8),4,6,21,23-hexaene-12,15,18-trione], the IC50 was determined as 0.02 µM. As to `CN1C(=O)[C@H](CCCCN)NC(=O)[C@H](CCCN)NCc2cccnc2Sc2cccc(-c3ccc(-c4nnn[nH]4)cc3)c2CNC(=O)[C@@H]1Cc1c[nH]c2ccccc12` [Example 5.00, (11S,14S,17S)-14-(4-Aminobutyl)-1-(3-aminopropyl)-17-(1H-indol-3-ylmethyl)-16-methyl-22-[4-(1H-tetrazol-5-yl)phenyl]-2-thia-4,10,13,16,19-pentazatricyclo[19.4.0.03,8]pentacosa-1(25), 3(8),4,6,21,23-hexaene-12,15,18-trione], the IC50 was determined as 0.02 µM. For `CN1C(=O)[C@H](CCCCN)NC(=O)[C@H](CCCN)NCc2nccnc2Sc2c(Cl)ccc(-c3ccc(S(=O)(=O)O)cc3)c2CNC(=O)[C@@H]1Cc1c[nH]c2ccccc12` [Example 6.00, 4-[(11S,14S,17S)-14-(4-Aminobutyl)-1-(3-aminopropyl)-25-chloro-17-(1H-indol-3-ylmethyl)-16-methyl-12,15,18-trioxo-2-thia-4,7,10,13,16,19-hexazatricyclo[19.4.0.03,8]pentacosa-1(25), 3(8),4,6,21,23-hexaen-22-yl]benzenesulfonic acid], the IC50 came out at 0.02 µM.

Turning to `CN1C(=O)[C@H](CCCCN)NC(=O)[C@H](CCCN)NCc2cccnc2Sc2c(F)ccc(-c3ccc(S(=O)(=O)O)cc3)c2CNC(=O)[C@@H]1Cc1c[nH]c2ccccc12` [Example 7.00, 4-[(11S,14S,17S)-14-(4-Aminobutyl)-11-(3-aminopropyl)-25-fluoro-17-(1H-indol-3-ylmethyl)-16-methyl-12,15,18-trioxo-2-thia-4,10,13,16,19-pentazatricyclo[19.4.0.03,8]pentacosa-1(25), 3(8),4,6,21,23-hexaen-22-yl]benzenesulfonic acid], the IC50 is 0.02 µM. The result for `CN1C(=O)[C@H](CCCCN)NC(=O)[C@H](CCCN)NCc2cccnc2Sc2c(F)ccc(-c3ccc(-c4nnn[nH]4)cc3)c2CNC(=O)[C@@H]1Cc1c[nH]c2ccccc12` [Example 7.01, (11S,14S,17S)-14-(4-aminobutyl)-11-(3-aminopropyl)-25-fluoro-17-(1H-indol-3-ylmethyl)-16-methyl-22-[4-(1H-tetrazol-5-yl)phenyl]-2-thia-4,10,13,16,19-pentazatricyclo[19.4.0.03,8]pentacosa-1(25),3(8),4,6,21,23-hexaene-12,15,18-trione] reads 0.02 µM; that for `CC(=O)NS(=O)(=O)c1ccc(-c2ccc(F)c3c2CNC(=O)[C@H](Cc2c[nH]c4ccccc24)N(C)C(=O)[C@H](CCCCN)NC(=O)[C@H](CCCN)NCc2cccnc2S3)cc1` [Example 7.02, N-[4-[(11S,14S,17S)-14-(4-aminobutyl)-11-(3-aminopropyl)-25-fluoro-17-(1H-indol-3-ylmethyl)-16-methyl-12,15,18-trioxo-2-thia-4,10,13,16,19-pentazatricyclo[19.4.0.03,8]pentacosa-1(25),3(8),4,6,21,23-hexaen-22-yl]phenyl]sulfonylacetamide], 0.03 µM.

For the compound `CN1C(=O)[C@H](CCCCN)NC(=O)[C@H](CCCN)NCc2cccnc2Sc2c(F)ccc(-c3ccc(C(=O)NS(C)(=O)=O)cc3)c2CNC(=O)[C@@H]1Cc1c[nH]c2ccccc12` [Example 7.03, 4-[(11S,14S,17S)-14-(4-aminobutyl)-11-(3-aminopropyl)-25-fluoro-17-(1H-indol-3-ylmethyl)-16-methyl-12,15,18-trioxo-2-thia-4,10,13,16,19-pentazatricyclo[19.4.0.03,8]pentacosa-1(25),3(8),4,6,21,23-hexaen-22-yl]-N-methylsulfonyl-benzamide], the IC50 came out at 0.04 µM. For `CN1C(=O)[C@H](CCCN)NC(=O)[C@H](CCCN)NCc2cccnc2Sc2c(Cl)ccc(-c3ccc(S(=O)(=O)O)cc3)c2CNC(=O)[C@@H]1Cc1c[nH]c2ccccc12` [Example 8.00, 4-[(11S,14S,17S)-11,14-Bis(3-aminopropyl)-25-chloro-17-(1H-indol-3-ylmethyl)-16-methyl-12,15,18-trioxo-2-thia-4,10,13,16,19-pentazatricyclo[19.4.0.03,8]pentacosa-1(21),3,5,7,22,24-hexaen-22-yl]benzenesulfonic acid], the IC50 is 0.02 µM.
